Earlier results as cited in patent US20090304576A1, “DEVICE FOR DELIVERY OF ANTI-CANCER AGENTS TO TISSUE” (priority 2006, published 2009).

Settings: diffusion in solid tissue such as brain; estimated

For `O=NN(CCCl)C(=O)NCCCl` [carmustine], the “maximum effective range from a source” value is listed as “about 5 mm”.
